Source: patent US20150346214A1, “DETECTION OF MEMBRANE PROTEINS” (priority 2012, published 2015)

Key:
Aquaporin Z (AQPZ) [1] = biological target: T1, Aquaporin Z (AQPZ) (Escherichia coli, UniProt P60844); test: Phospholipid binding to AQPZ resolved by native MS / IM-MS in C8E4; set-up: species or system E. coli; details: for # Bound (number of resolvable phospholipids bound): AQPZ in C8E4, optimised P:L:D ratio of Table 2
ammonia channel (AmtB) = ammonia channel (AmtB) (Escherichia coli, UniProt P69681); test: Phospholipid binding to AmtB resolved by native MS / IM-MS in C8E4; set-up: species or system E. coli; details: AmtB in C8E4; optimised P:L:D ratio of Table 2
[2] = biological target: T2, mechanosensitive channel of large conductance (MscL) (Mycobacterium tuberculosis, UniProt P9WJN5); test: Phospholipid binding to MscL resolved by native MS / IM-MS in C8E4; details: optimised P:L:D ratio of Table 2
T2 sequence (P9WJN5 1-151): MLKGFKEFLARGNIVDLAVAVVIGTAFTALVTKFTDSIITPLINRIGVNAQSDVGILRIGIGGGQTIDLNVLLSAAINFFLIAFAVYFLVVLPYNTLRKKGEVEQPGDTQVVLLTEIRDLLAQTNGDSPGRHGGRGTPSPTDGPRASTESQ

[3] = biological target: E. coli ammonium channel C-terminally fused to green fluorescent protein (AmtB-GFP) (Escherichia coli, UniProt P69681, S65T); details: AmtB-GFP trimer in MS buffer with 2x CMC of the detergent; charge state envelopes modelled with a Gaussian
Experimental: The activation energy required to achieve resolved peaks of E. coli ammonium channel C-terminally fused to green fluorescent protein (AmtB-GFP) was assessed for a variety of non-ionic detergents.
AmtB-GFP was extracted from purified membranes (described above) with 1-2% (w/v) of the detergent of interest in Buffer B and incubated for one to three hours at room temperature or overnight at 4° C. Insoluble material was pelleted by centrifugation at 20,000 g for 25 minutes at 4° C. The clarified supernatant was loaded onto small Ni-NTA agarose (Qiagen) drip columns (Bio-spin Chromatography columns, Bio-Rad) and washed with several column volumes of Buffer C (200 mM sodium chloride, 20 mM Imidazole, 5 mM BME, 2× CMC detergent of interest, and 50 mM TRIS, pH 8.0 at room temperature). AmtB-GFP was eluted with two column volumes of Buffer D (100 mM sodium chloride, 250 mM Imidazole, 5 mM BME, 2× CMC detergent of interest, and 50 mM TRIS, pH 8.0 at room temperature). Eluted protein was concentrated using a 100 kDa MWCO concentrator and buffer exchanged into MS Buffer (2× CMC detergent of interest and 200 mM Ammonium Acetate, pH 8.0 with Ammonium Hydroxide) using a centrifugal buffer exchange device (Micro Bio-Spin 6, Bio-Rad).
Buffer exchanged protein was analysed on a Q-TOF 2 mass spectrometer (Micromass, Manchester, UK) with a Z-spray source including modifications for protein complexes after introduction of complexes from gold-coated nanoflow capillaries.

Aquaporin Z (AQPZ) [4] = biological target: T1, Aquaporin Z (AQPZ); test: Mass spectra and ion mobility MS of AQPZ complex in three detergents (Example 2); set-up: species or system E. coli; details: for experimental collisional cross section (CCS) / folded state: AQPZ, IM-MS, CIU fingerprints, C8E4 at ELAB <1500; for species in mass spectrum (expected oligomer versus dissociation products): tetrameric AQPZ, sample cone 10 volts, collision voltage 200 volts
Experimental: (§1) AmtB-GFP and AQPZ-GFP were extracted from purified membranes in 2% OG in Buffer B and incubated overnight at 4° C. Extracted membrane proteins were clarified by centrifugation at 20,000 g for 25 minutes at 4° C. The clarified supernatant was filtered before loading onto a 5 mL HisTrap-HP column (GE Healthcare, Piscataway, NJ) equilibrated in Buffer E (200 mM sodium chloride, 10% glycerol, 20 mM Imidazole, 0.025% DDM, and 50 mM TRIS, pH 7.4 at room temperature). After the clarified supernatant was loaded, the column was initially washed with 40-50 mL of Buffer E containing 1% OG instead of DDM followed by several column volumes of Buffer E until a steady baseline was reached. Protein was eluted with a linear gradient to 100% in two column volumes of Buffer F (100 mM sodium chloride, 10% glycerol, 500 mM Imidazole, 0.025% DDM, and 50 mM TRIS, pH 7.4 at room temperature). Peak fractions were pooled, supplemented with 5mM BME and His-tagged TEV protease, arid dialyzed against Buffer G (150 mM sodium chloride, 10% glycerol, 20 mM Imidazole, 0.02% DDM, and 50 mM TRIS, pH 7.4 at room temperature) overnight at 4° C. After overnight incubation at 4° C., samples were filtered and passed back over a 5 mL. HisTrap-HP column equilibrated in Buffer E. Flow through containing the untagged membrane protein was collected and concentrated using a 100 kDa MWCO concentrator. Concentrated protein was flash frozen in liquid nitrogen and stored at -80° C.
(§2) Frozen samples were thawed on ice prior to detergent exchange over gel filtration. Samples were injected on a Superdex 200 10/300 (GE Healthcare) equilibrated in Buffer H (130 mM sodium chloride, 10% glycerol, and 50 mM TRIS, pH 7.4 at room temperature) supplemented with 0.5% of C8E4, 0.4% of NG, or 0.02% of DDM. Peak fractions were concentrated using a 100 kDa MWCO concentrator. Concentrated protein was either used directly or flash-frozen in liquid nitrogen and stored at −80° C. Purified membrane proteins were buffer exchanged into MS Buffer (2× CMC detergent of interest and 200 mM Ammonium Acetate, pH 8.0 with Ammonium Hydroxide) using a centrifugal buffer exchange device (Micro Bio-Spin 6, Bio-Rad).
(§3) Buffer exchanged protein was analysed on a quadrupole ion mobility time-of-flight mass spectrometer (Synapt HDMS, Waters Corp.) modified with an 18 cm drift cell with radial RF confinement (RF amplitude 200 V) and a linear voltage gradient along the axis of ion transmission such that collision cross section (CCS) values could be determined directly.
(§4) Mass spectra were acquired with instrument set to 10 volts for sample cone and 200 volts for collision voltage.
(§5) The preservation of native structure is most likely due to the charge reducing behaviour of C8E4, as well as other polyoxyalkylene glycol detergents, which results in a two to five fold reduction in activation energy. In addition, under ELAB values slightly greater than 1500, the CCS value increases consistent with partial unfolding. More importantly, gas-phase unfolding can be observed for these membrane complexes at ELAB values of 1750 to 2250. These gas-phase unfolding transitions can be altered in the presence of a drug molecule that stabilises protein structure, thereby enabling the detection of drug molecules that stabilise protein structure.

ammonium channel (AmtB) = ammonium channel (AmtB) (Escherichia coli, UniProt P69681); test: Mass spectra and ion mobility MS of AmtB complex in three detergents (Example 2); set-up: species or system E. coli; details: for experimental collisional cross section (CCS) / folded state: AmtB, IM-MS, CIU fingerprints, C8E4 at ELAB <1500; for species in mass spectrum (expected oligomer versus dissociation products): trimeric AmtB, sample cone 10 volts, collision voltage 200 volts
Experimental: as §1, §2, §3, §4, §5

T1 sequence (P60844 whole entry): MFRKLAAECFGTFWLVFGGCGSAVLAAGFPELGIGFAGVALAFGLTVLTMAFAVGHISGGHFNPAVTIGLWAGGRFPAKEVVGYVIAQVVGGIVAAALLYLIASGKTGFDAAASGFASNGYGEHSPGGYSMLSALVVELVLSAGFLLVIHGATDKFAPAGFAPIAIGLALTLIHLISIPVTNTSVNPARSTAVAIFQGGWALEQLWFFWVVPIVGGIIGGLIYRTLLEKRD

Molecule | # Bound (number of resolvable phospholipids bound) [2] | Zavg (mean charge state) [3] | further results
1-palrnitoyl-2-oleoyl-sn-glycero-3-phosphocholine (16:0-18:1) [PC] | 3 | – | # Bound (number of resolvable phospholipids bound) (Aquaporin Z (AQPZ) [1]): 3; bound phospholipid molecules (Aquaporin Z (AQPZ) [1]; AQPZ tetramer, mass spectra and ion mobility (FIG. 9)): up to four; bound phospholipid molecules resolved (Aquaporin Z (AQPZ) [1]; AQPZ, collision voltage 130 V (FIG. 6a)): one to six; # Bound (number of resolvable phospholipids bound) (ammonia channel (AmtB)): 3
CCCCCCCC/C=C\CCCCCCCCCCCC(=O)OC[C@H](COP(=O)([O-])OCC[N+](C)(C)C)OC(=O)CCCCCCCCCCC/C=C\CCCCCCCC (stereo in doubt) [DEPC, 1 ,2-dierucoyl-sn-glycero-3-phosphocholine (22:1 Cis)] | 2 | – | –
CCCCCCCC/C=C\CCCCCCCCCC(=O)OC[C@H](COP(=O)([O-])OCC[N+](C)(C)C)OC(=O)CCCCCCCCC/C=C\CCCCCCCC (stereo in doubt) [DIPC, 1,2-dieicosenoyl-sn-glycero-3-phosphocholine (20:1 Cis)] | 2 | – | –
CCCC/C=C\CCCCCCCC(=O)OC[C@H](COP(=O)([O-])OCC[N+](C)(C)C)OC(=O)CCCCCCC/C=C\CCCC (stereo in doubt) [DMPC, 1,2-dimyristoleoyl-sn-glycero-3-phosphocholine (14:1 Cis)] | 2 | – | –
CCCCCCCC/C=C\CCCCCCCCCCCCCC(=O)OC[C@H](COP(=O)([O-])OCC[N+](C)(C)C)OC(=O)CCCCCCCCCCCCC/C=C\CCCCCCCC (stereo in doubt) [DNPC, 1,2-dinervonoyl-sn-glycero-3-phosphocholine (24:1 Cis)] | 2 | – | –
CCCCCCCC/C=C\CCCCCCCC(=O)OC[C@H](COP(=O)([O-])OCC[N+](C)(C)C)OC(=O)CCCCCCC/C=C\CCCCCCCC (stereo in doubt) [DOPC, 1,2-dioleoyl-sn-glycero-3-phosphocholine (18:1 Cis)] | 2 | – | –
CCCCCC/C=C\CCCCCCCC(=O)OC[C@H](COP(=O)([O-])OCC[N+](C)(C)C)OC(=O)CCCCCCC/C=C\CCCCCC (stereo in doubt) [DPPC, 1,2-dipalmitoleoyl-sn-glycero-3-phosphocholine (16:1 Cis)] | 2 | – | –
CCCCCCCCOCCOCCOCCOCCO [C8E4, tetraethylene glycol monooctyl ether] | – | 21.3 | experimental collisional cross section (CCS) / folded state (Aquaporin Z (AQPZ) [4]): consistent with calculated CCS values from their respective crystal structure; species in mass spectrum (expected oligomer versus dissociation products) (Aquaporin Z (AQPZ) [4]): no observable dissociation products; experimental collisional cross section (CCS) / folded state (ammonium channel (AmtB)): consistent with calculated CCS values from their respective crystal structure; species in mass spectrum (expected oligomer versus dissociation products) (ammonium channel (AmtB)): no observable dissociation products
OC[C@H]1O[C@H](O[C@H]2[C@H](O)[C@@H](O)[C@H](OCCCCCC3CCCCC3)O[C@@H]2CO)[C@H](O)[C@@H](O)[C@@H]1O [Cy5, Cymal-5] | – | 31.3 | –
OC[C@H]1O[C@H](O[C@H]2[C@H](O)[C@@H](O)[C@H](OCCCCCCC3CCCCC3)O[C@@H]2CO)[C@H](O)[C@@H](O)[C@@H]1O [Cy6, Cymal-6] | – | 30.5 | –
CCCCCCCCCCCCO[C@@H]1O[C@H](CO)[C@@H](O[C@H]2O[C@H](CO)[C@@H](O)[C@H](O)[C@H]2O)[C@H](O)[C@H]1O [DDM, n-Dodecyl-β-D-maltoside] | – | 30.4 | experimental collisional cross section (CCS) / folded state (Aquaporin Z (AQPZ) [4]): all unfolded CCS values; species in mass spectrum (expected oligomer versus dissociation products) (Aquaporin Z (AQPZ) [4]): mainly dissociation products; experimental collisional cross section (CCS) / folded state (ammonium channel (AmtB)): all unfolded CCS values; species in mass spectrum (expected oligomer versus dissociation products) (ammonium channel (AmtB)): mainly dissociation products
CCCCCCCCCCCCS[C@@H]1O[C@H](CO)[C@@H](O[C@H]2O[C@H](CO)[C@@H](O)[C@H](O)[C@H]2O)[C@H](O)[C@H]1O [DDTM, n-Dodecyl-β-D-thiomaltopyranoside] | – | 30.0 | –
CCCCCCCCCCO[C@@H]1O[C@H](CO)[C@@H](O[C@H]2O[C@H](CO)[C@@H](O)[C@H](O)[C@H]2O)[C@H](O)[C@H]1O [DM, n-Decyl-β-D-maltoside] | – | 31.4 | –
CCCCCCCCO[C@@H]1O[C@H](CO)[C@@H](O)[C@H](O)[C@H]1O [OG, n-Octyl-β-D-glucopyranoside] | – | 31.2 | –
CCCCCCCCS[C@@H]1O[C@H](CO)[C@@H](O)[C@H](O)[C@H]1O [OTG, n-Octyl-β-D-thioglucopyranoside] | – | 31.9 | –
CCCCCCCC/C=C\CCCCCCCC(=O)OC[C@H](COP(=O)(O)O[C@H]1C(O)C(O)C(O)[C@@H](OP(=O)(O)O)C1O)OC(=O)CCCCCCC/C=C\CCCCCCCC (stereo partly drawn) [PI] | 4 | – | –
CCCCCCCCCCCOC1OC(CO)C(OC2OC(CO)C(O)C(O)C2O)C(O)C1O [UDM, n-Undecyl-β-D-maltoside] | – | 30.3 | –
L-α-phosphatidylethanolamine (E. coli) [PE] | 1 | – | # Bound (number of resolvable phospholipids bound) (Aquaporin Z (AQPZ) [1]): 1; # Bound (number of resolvable phospholipids bound) (ammonia channel (AmtB)): 2
Octyl Glucose Neopentyl Glycol [OGNG] | – | 27.9 | –
polyethylene glycol tert-octylphenyl ether [TX100] | – | 21.6 | –
polyoxyethylene (8) dodecyl ether [C12E8] | – | 25.8 | –
polyoxyethylene (20) cetyl ether [C16E20] | – | 25.0 | –
